Legend:
LO2 cells [1] = test: Cell viability of LO2 cells exposed to APAP (MTT), liver injury model; format: cell-based, human
Description: Cell culture and model construction: The experimental LO2 cells were provided by Shanghai Fuheng Biotechnology Co., Ltd. (Shanghai, China). Cells induced by APAP formed a cell model of liver injury. The cells were cultured in RPMI 1640 medium containing 100 units of penicillin, 100 μg/mL streptomycin, and 10% FBS at 37 °C and 5% CO2 atmosphere. The cells were changed daily and passaged when the contact reached 80%. Cells in the logarithmic growth phase were seeded onto a 96-well plate at a density of 4000 cells per well and subsequently incubated at 37 °C in an atmosphere containing 5% CO2. After 24 h of pre-incubation, cells were exposed to APAP at concentrations of 2, 4, 8, and 16 mM, followed by continued culture for the designated time periods. Subsequently, 20 μL of MTT solution (5 mg/mL, dissolved in PBS) was added to each well and incubated for an additional 4 h at 37 °C. To dissolve the formed formazan crystals, 200 μL of DMSO was added. The absorbance values were then measured at 490 nm using a microplate reader ([sequence] 200 PRO, Tecan, Männedorf, Switzerland). The cell survival rates at different APAP concentrations were calculated, and a cell survival rate below 60% was considered indicative of successful model construction. The specific formula employed for calculating the cell survival rate is provided below. […] Cell viability=AAPAP−ABlank/AControl−ABlank

[2] = Pharmacokinetics after oral gavage in rats (plasma, HPLC); format: in vivo, Sprague Dawley rats; settings: male, Sprague Dawley, rat, po, 20 mg/kg
From the text: Nine male Sprague Dawley rats, each weighing approximately 250 g ± 25 g, were meticulously selected as the experimental subjects (sourced from Beijing SPF Biotechnology Co., Ltd., (Beijing, China) SPF grade, licensed under SCXK (Jing) 2019-0010). The experimental protocol was approved by the Institutional Animal Care and Use Committee of Hebei Medical University and conformed to the Guide for Care and Use of Laboratory Animals (approval NO. 2023040). Prior to and throughout the experimental period, the rats were provided with unrestricted access to standard rodent chow and water. The housing facilities for these animals adhered strictly to the standards outlined by the International Association for the Evaluation and Certification of Laboratory Animal Care, ensuring optimal conditions for the animals’ wellbeing. The experimental feeding environment was maintained at a temperature of 22–24 °C, with a relative humidity of 50 ± 5%, and a 12-h light/dark cycle to mimic natural diurnal rhythms. The rats were randomly allocated into three distinct groups, with an equal distribution of three rats per group. MONO, DIAM, and MAGN were administered orally at a dose of 20 mg/kg. The amount administered was calculated as the contents of glycyrrhizinate or magnesium isoglycyrrhizinate. Each compound was dissolved in 0.5% carboxymethylcellulose sodium (CMC-Na) solution and delivered immediately to rats via gastric gavage. Blood samples of 0.2 mL were obtained at various time points post-administration (0.5, 1, 2, 4, 8, 12, 24, and 48 h) and centrifuged at 1500× g for 10 min at 4 °C, allowing for the separation of plasma, which was collected and stored at −20 °C for subsequent analysis.
Fifty microliters (50 μL) of plasma was obtained and spiked with 10 μL of dipyridamole solution as an internal standard. Subsequently, 100 μL of acetonitrile was added to precipitate the proteins, followed by vortex mixing. The mixture was centrifuged at 6000× g for 10 min at 4 °C. The resulting precipitate was discarded, and the supernatant was evaporated to dryness under a nitrogen stream at 60 °C. The residual precipitate was redissolved in 200 μL of mobile phase, vortexed for 5 min, and sonicated for 30 s. Following this, the solution was centrifuged again at 6000× g for 10 min at 4 °C. Then, 10 μL of the supernatant was injected and the chromatogram was recorded for analysis.
HPLC was employed using the Agilent 1200 series system (Agilent Technologies, Wilmington, DE, USA) with Agilent Chemstation LC B.04.03 Software. The separation was on a Venusil MP C18(2) chromatographic column (150 × 4.6 mm, 5 μm, Agela Technologies, Tianjin, China) based on the United States Pharmacopeia with adjustments performed. Isocratic elution with a mixture of 40 volumes of acetonitrile and 60 volumes of water (containing 0.5% acetic acid) was used. The flow rate and temperature were 1.0 mL/min and 40 °C, respectively. A volume of 10 μL of the sample was injected under 254 nm for analyses and with three repetitions for each test (n = 3). All the pharmacokinetic data were calculated by Drug and Statistics (DAS) 2.0 software (Mathematical Pharmacology Professional Committee of China, Shanghai, China) and presented as mean ± SD. The main parameters such as the area under the curve (AUC), the maximum plasma concentration (Cmax), the time to Cmax (Tmax), and elimination half-life (t1/2) were tabulated.

LO2 cells [3] = test: Hepatocyte protection rate in APAP-induced LO2 cells (MTT); format: cell-based, human; settings: 16 mM APAP, 200, 400 and 600 μM
Description: Assessment of hepatocyte-protective effects: Cells in the logarithmic growth phase were seeded onto a 96-well plate at a density of 4000 cells per well, followed by incubation at 37 °C in an atmosphere containing 5% CO2. After 24 h of incubation, cells were treated with 16 mM APAP, followed by the addition of MONO, DIAM, and MAGN at three escalating concentrations (200, 400, and 600 μM for each compound). The cell survival rate was quantitatively evaluated using MTT method. The protective efficacy of the compounds was then calculated employing the formula outlined below.(1) Hepatocytes protection rate=AGlycyrrhizinate−AAPAP/Anormal−AAPAP×1

| Compound | cytotoxicity towards LO2 cells (LO2 cells [1]; APAP 2-16 mM) | cell survival rate (LO2 cells [1]; APAP concentrations exceeding 16 mM, 24 h of APAP exposure) | half-life ([2]; n = 3) [h] | AUC(0-t) ([2]; n = 3, read-out: AUC0-t) [µg·h/mL] | Cmax ([2]; n = 3, read-out: Cmax) [ng/mL] | Tmax ([2]; n = 3, read-out: Tmax) [h] | hepatocyte protection (therapeutic effect) (LO2 cells [3]) |
| --- | --- | --- | --- | --- | --- | --- | --- |
| CC(=O)Nc1ccc(O)cc1 [APAP, acetaminophen] | concentration-dependent cytotoxicity | below 60% | – | – | – | – | – |
| CC1(C)[C@@H](O[C@H]2O[C@H](C(=O)O)[C@@H](O)[C@H](O)[C@H]2O[C@@H]2O[C@H](C(=O)O)[C@@H](O)[C@H](O)[C@H]2O)CC[C@]2(C)[C@H]3C(=O)C=C4[C@@H]5C[C@@](C)(C(=O)O)CC[C@]5(C)CC[C@@]4(C)[C@]3(C)CC[C@@H]12 [MONO, monoammonium glycyrrhizinate] | – | – | 10.8 ± 0.66 | 320 ± 78.6 | 15000 ± 3640 | 8 | concentration-dependent therapeutic effects |
